{
  "source": "patent US6352737B1",
  "about": "“Use of nanoscale sterols and sterol esters” (Cognis Deutschland GmbH, priority 1999, dated 2002)",
  "system": "radioactive cholesterol",
  "assay": "Hypocholesterolemic effect: content of radioactive cholesterol in blood of rats after oral gelatine capsule",
  "type": "in vivo",
  "details": "male rats, relative to blank group, mean of 10 animals; for Radioactivity After 3 h: blood 3 h after gelatine capsule (5% by weight sterol/ester, 0.5% by weight radioactively marked cholesterol) via stomach probe; for Radioactivity After 6 h: blood 6 h after gelatine capsule via stomach probe; for Radioactivity After 12 h: blood 12 h after gelatine capsule via stomach probe; for Radioactivity After 24 h: blood 24 h after gelatine capsule via stomach probe; for Radioactivity After 48 h: blood 48 h after gelatine capsule via stomach probe",
  "experimental": "Gelatine capsules (weight ca. 1.5 g) containing 5% by weight β-sitostanol or β-sitostanolester (nanoparticles encapsulated in a gelatine or chitosan matrix and non-nanoscale commercial products) and 0.5% by weight of radioactively marked cholesterol were prepared. To study the hypocholesterolemic effect, male rats (individual weight ca.200 g) were allowed no food overnight. The next day, a size-reduced gelatine capsule was inserted into each test animal via a stomach probe together with a little water containing sodium chloride. After 3, 6, 12, 24 and 48 h, blood was taken from the animals and the content of radioactive cholesterol was determined. The results, which represent the mean value of the measurements of 10 test animals, are set out in Table 2. The figures relating to the reduction in radioactivity are based on a blank group of test animals which were only given gelatine capsules containing 20% by weight of vitamin E and a corresponding quantity of radioactively marked cholesterol. Examples 1 and 2 correspond to the invention, Examples C1 and C2 are intended for comparison.",
  "data": [
    {"smiles": "CC[C@H](CC[C@@H](C)[C@H]1CC[C@H]2[C@@H]3CC[C@H]4C[C@@H](O)CC[C@]4(C)[C@H]3CC[C@]12C)C(C)C", "note": "[Example C1, β-Sitostanol]", "values": [
      {"measurement": "Radioactivity After 3 h", "result": 93, "unit": "%-rel."},
      {"measurement": "Radioactivity After 6 h", "result": 83, "unit": "%-rel."},
      {"measurement": "Radioactivity After 12 h", "result": 75, "unit": "%-rel."},
      {"measurement": "Radioactivity After 24 h", "result": 50, "unit": "%-rel."},
      {"measurement": "Radioactivity After 48 h", "result": 32, "unit": "%-rel."}
    ]},
    {"smiles": "CCCCCCCCCCCCCCCCCC(=O)O[C@H]1CC[C@@]2(C)[C@@H](CC[C@@H]3[C@@H]2CC[C@]2(C)[C@@H]([C@H](C)CC[C@@H](CC)C(C)C)CC[C@@H]32)C1", "note": "[Example C2, β-Sitostanyl stearate]", "values": [
      {"measurement": "Radioactivity After 3 h", "result": 90, "unit": "%-rel."},
      {"measurement": "Radioactivity After 6 h", "result": 80, "unit": "%-rel."},
      {"measurement": "Radioactivity After 12 h", "result": 71, "unit": "%-rel."},
      {"measurement": "Radioactivity After 24 h", "result": 44, "unit": "%-rel."},
      {"measurement": "Radioactivity After 48 h", "result": 26, "unit": "%-rel."}
    ]}
  ]
}
